Consider one compound from patent publication US12123031B2, “Regulation of CRISPR-associated rossman fold (CARF) domain containing proteins by oligoadenylates” (VILNIUS UNIVERSITY, priority 2017, dated 2024).

Structures are written as SMILES.

In assay [1] the target is T1, StCsm6 (Streptococcus thermophilus, UniProt A0A0A7HIX6).
T1 construct: HSH (StrepII tag plus two 6xHis tags) (N); made in house; host or cells: E. coli DH10B (ara)
T1 sequence (A0A0A7HIX6 1-428): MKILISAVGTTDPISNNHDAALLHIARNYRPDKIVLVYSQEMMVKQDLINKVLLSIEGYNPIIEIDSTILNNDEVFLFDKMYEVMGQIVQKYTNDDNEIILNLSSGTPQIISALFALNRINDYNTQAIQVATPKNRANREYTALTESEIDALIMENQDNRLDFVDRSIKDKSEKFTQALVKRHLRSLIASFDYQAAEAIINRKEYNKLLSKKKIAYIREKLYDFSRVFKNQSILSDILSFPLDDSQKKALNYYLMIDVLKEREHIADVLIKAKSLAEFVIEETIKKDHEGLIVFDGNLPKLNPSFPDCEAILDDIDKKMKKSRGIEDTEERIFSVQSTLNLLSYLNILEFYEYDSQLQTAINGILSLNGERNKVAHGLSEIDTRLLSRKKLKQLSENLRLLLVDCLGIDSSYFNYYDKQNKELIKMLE
Nature of the assay: Csm6 nuclease assay, StCsm6. The assay is classed as biochemical. The following applies: ssRNA NS, 37° C. 30 min, 50 nM individual cyclic oligoadenylate.
Description: Csm6 nuclease assay. […] 5′P-oligoadenylates were obtained by incubating 3.(3) μM of non-phosphorylated linear oligoadenylate with 0.5 U T4 polynucleotide kinase and 1 mM ATP in the Reaction buffer A at 37° C. for 40 min.
Reactions were started by adding 0-10 μM Csm6 and carried out at 37° C. The reaction products were separated on a denaturing 15% (29:1 acrylamide:bis-acrylamide) PAAG and visualized by autoradiography. StCsm6 nuclease assays with ATP additionally contained 1 mM of ATP in the reaction mixture.

The target of assay [2] is T2, StCsm6′ (Streptococcus thermophilus, UniProt A0A0A7HFE6).
T2 construct: HSH (StrepII tag plus two 6xHis tags) (N); made in house; host or cells: E. coli DH10B (ara)
Nature of the assay: Csm6 nuclease assay, StCsm6′. The assay is classed as biochemical. The following applies: ssRNA NS, 37° C. 30 min, 50 nM individual cyclic oligoadenylate. Here is the method:
Csm6 nuclease assay. StCsm6, StCsm6′, and TtCsm6 nuclease assays were conducted in the Reaction buffer (33 mM Tris-acetate (pH 7.6 at 37° C.), 66 mM K-acetate, 0.1 mg/ml BSA) supplemented with 1 mM EDTA and containing 5 nM of 5′-radiolabeled and 5 nM of unlabeled RNA NS (unless stated otherwise; see all RNA substrates used in this study in Table 1) and 500 nM of cyclic oligoadenylate mixture or 0.5-500 nM of the HPLC purified cyclic oligoadenylate effectors or 5-500 nM linear oligoadenylate with various phosphorylation levels—linear oligoadenylate 5′-triphosphate (ChemGenes); non-phosphorylated, 3′P (Metabion) or 5′P containing linear oligoadenylates. 5′P-oligoadenylates were obtained by incubating 3.(3) μM of non-phosphorylated linear oligoadenylate with 0.5 U T4 polynucleotide kinase and 1 mM ATP in the Reaction buffer A at 37° C. for 40 min. […]
(FIG. 20A) Domain arrangement of StCsm6′. […] The elution profile of the StCsm6′ is presented with the calculated experimental molecular weight 108.1 kDa, corresponding to protein dimer. […]
Analysis of StCsm6 (FIG. 23A) and StCsm6′ (FIG. 23B) cleavage of ssRNA NS in the absence or presence of synthetic c(AMP)2 (c-di-AMP) (Sigma-Aldrich) or HPLC isolated c(AMP)3, c(AMP)4, c(AMP)5 (synthesized by StCsm from ATP) or c(AMP)6 (synthesized by StCsm from pp(pA)6 precursor). […] Samples were analyzed in denaturing PAAG, followed by phosphorimaging. […]

T2 sequence (A0A0A7HFE6 whole entry): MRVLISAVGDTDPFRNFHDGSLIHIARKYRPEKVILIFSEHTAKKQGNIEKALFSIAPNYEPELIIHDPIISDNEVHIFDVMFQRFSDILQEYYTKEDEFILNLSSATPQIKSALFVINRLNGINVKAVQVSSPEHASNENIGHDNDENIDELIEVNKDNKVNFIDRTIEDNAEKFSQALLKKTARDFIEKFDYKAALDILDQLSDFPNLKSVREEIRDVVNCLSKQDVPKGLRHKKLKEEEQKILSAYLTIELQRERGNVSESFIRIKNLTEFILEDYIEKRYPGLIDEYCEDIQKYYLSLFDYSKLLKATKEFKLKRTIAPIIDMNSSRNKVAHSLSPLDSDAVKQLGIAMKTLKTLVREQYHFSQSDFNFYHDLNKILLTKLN

Consider `Nc1ncnc2c1ncn2[C@@H]1O[C@@H]2COP(=O)(O)O[C@H]3[C@@H](O)[C@H](n4cnc5c(N)ncnc54)O[C@@H]3COP(=O)(O)O[C@H]2[C@H]1O` [c(AMP)2, c-di-AMP], for which the “stimulation of StCsm6 ribonuclease activity” value in assay [1] is reported as “only c(AMP)6 stimulated”. Also, the “stimulation of StCsm6′ ribonuclease activity” value in assay [2] is reported as “only c(AMP)6 stimulated”.
